In patent US20230330233A1, “COMPOSITIONS AND METHODS FOR DELIVERING PHARMACEUTICAL AGENTS” (priority 2018, published 2023):

How the values were obtained:
mouse model = settings: oral, Ullmann's Encyclopedia; cited from earlier work
[1] = Dissolution in SG media containing methyl cellulose polymer, Example 2; format: physicochemical; settings: SG media with methyl cellulose polymer, Average (Standard Error of the Mean)
Excerpt: (§1) This Example described further characterization of a variety of drugs in MOF-5. Methyl cellulose polymer was included in both SG and PBS) dissolution media to inhibit precipitation of drug molecules at high supersaturation and to serve as a proxy for what would be an extensive formulation process of this supersaturating drug delivery system. […] Immediate release of CUR molecules from CUR@MOF-5 via MOF hydrolytic decomposition leads to rapid dissolution which generates high supersaturation in the first 60 min (FIGS. 5a and b). […] This immediate drug release from drug@MOF-5 composite is in contrast with controlled drug release from an amorphous drug@MOF composite with a water stable framework ([…] al., Chem. Commun. 2015, 51, 13878).

[2] = Dissolution and supersaturation in simulated gastric (SG) media, UV-vis, Example 1; format: physicochemical; settings: 37° C., Average (Standard Error of the Mean)
Procedure: (§2) To determine the dissolution and supersaturation behavior in SG and PBS media of all CUR, SUL, CUR@MOF-5 and SUL@MOF-5 composites and their physical mixture samples, UV-vis spectroscopy (which is applied to monitor the dissolution process) was used. Concentration of CUR and SUL at 37° C. was determined. FIGS. 4a-d illustrate the solubility of pure CUR, CUR@MOF-5 composite and physical mixture and pure SUL, SUL@MOF-5 composite and physical mixture in SG and PBS media respectively. […] Because the immediate release of CUR molecules (from CUR@mof-5 composite) led to rapid dissolution, which generates high supersaturation in the first 60 min. […] Subsequently, a crystallization process occurs accompanied by a decrease in CUR concentration in both media.

[3] = Dissolution and supersaturation in phosphate buffer saline (PBS) media, UV-vis, Example 1; format: physicochemical; settings: for AUC0-4 / Cmax: 37° C., Average (Standard Error of the Mean)
Procedure: as §2

[4] = Dissolution in PBS media containing methyl cellulose polymer, Example 2; format: physicochemical; settings: PBS media with methyl cellulose polymer, Average (Standard Error of the Mean)
Excerpt: as §1

SMILES | lethal dose, LD50 (mouse model) | AUC0-4 [1] | Cmax [1] | AUC0-4 [2] | Cmax [2] | dissolution behavior in PBS media [3] | AUC0-4 [3] | Cmax [3] | AUC0-4 [4] | Cmax [4]
O=C(O)c1ccc(C(=O)O)cc1 [terephthalic acid] | over 1 g/kg | – | – | – | – | – | – | – | – | –
CC1=C(CC(=O)O)c2cc(F)ccc2/C1=C\c1ccc([S+](C)[O-])cc1 (stereo not drawn) [SUL, sulindac] | – | 1.38(2) mg*h/mL | 6.84(7) μg/mL | 1.32(2) mg*h/mL | 6.01(6) μg/mL | fully dissolved | 15.82(21) mg*h/mL | 68.65(91) μg/mL | – | –
COc1cc(/C=C/C(=O)CC(=O)/C=C/c2ccc(O)c(OC)c2)ccc1O [CUR, curcumin] | – | 0.39(6) mg*h/mL | 2.12(21) μg/mL | 0.41(6) mg*h/mL | 1.99(4) μg/mL | – | 0.22(3) mg*h/mL | 1.12(7) μg/mL | 0.15(2) mg*h/mL | 0.95(4) μg/mL
Nc1nc(N)c2nc(-c3ccccc3)c(N)nc2n1 [TAT, triamterene] | – | – | – | – | – | – | – | – | 5.89(9) mg*h/mL | 26.89(8) μg/mL
